Experimental data from US12538922B2, “Composition and methods for parasite control” (priority 2019, dated 2026).
Where a name gives a salt, the structure may show the parent alone. Read-outs that look alike come from different tables or passages of the source.

Experiments:
[1] = system: R. sanguineus tick larvae; settings: for Repellence Median (Q1-Q3) [%] / Knockdown Median (Q1-Q3) [%]: pure compound; for Repellence Median (Q1-Q3) [%]: median of replicates; for Knockdown Median (Q1-Q3) [%]: motility reduction over 9 min
Description: FIG. 1 Schematic representation of the tick repellent test. 30-60 tick larvae are deposited in the non-treated area of a circular arena (8.96 cm^2) whereby one quadrant of the surface (2.25 cm^2) is treated. After 1 minute, the distribution of ticks in the treated and untreated areas is measured for a duration of 2 minutes. The repellent/deterrent effect is expressed in %: 100% means that ticks completely avoided the treated surface. Toxicity is measured in the same setup over a duration of 8 minutes and the mortality is expressed in % motility reduction between the beginning and the end of the 8 minutes. Dosages are expressed as a quantity (mg or molarity) per surface unit (m^2), as the compound or extract is deposited at the bottom of the well. Pure compounds: dose given in micromoles/m^2; Extracts: dose given in micrograms/m^2. Tests were run in triplicates.
The assay is used to evaluate the repellent/deterrent potential of a test compound or extract. The test includes a preliminary assessment of knockdown efficacy as a secondary endpoint. Knockdown can be defined as a state of intoxication and paralysis that usually precedes death (Wickham et al. (1974) Pesticide Science 5(5): 657-664). The test relies on the questing behavior of ticks that explore their habitat to find a suitable host hunting site and their propensity to avoid areas treated with repellent or irritating substances. Tick knockdown is expressed as a reduction in total motility over a defined period of time, and not by collecting and counting the number of dead and live ticks at the end of the exposure period.
Plant extracts or synthetic pure alkaloids diluted in methanol (extracts) or ethanol (alkaloids) were deposited on the bottom of wells in a six-well plate. Only one quadrant ([…]) of the bottom surface of each well was treated. The solvent was left to evaporate. The final concentration of the plant extracts was, therefore, expressed in mg/m^2, or in micromoles per square meter (μmol/m^2) for the synthetic alkaloids. Final concentrations applied for plant extracts were 893 (R. sanguineus adults only), 446, 141, 44.6, 14.1, and 4.46 mg/m^2, and 300, 100, 30, 10, and 3 μmol/m^2 for pure alkaloids. Approximately 50 R. sanguineus tick larvae, and exactly 5 R. sanguineus adults, or 5 I. ricinus nymphs were added to the untreated area of each well. Positive (DEET, commercial tick repellent) and negative (methanol or ethanol) controls were evaluated in parallel. Each concentration tested was run in three or more test replicates. After a 1-min incubation on a heating plate, the frequency of tick movement in the treated quadrant and in each of the untreated quadrants was recorded by machine vision. Tick movement on the untreated surface was computed as the median of movement on the three untreated quadrants. To estimate deterrence recordings were performed over a period of 2 min for R. sanguineus larvae, and for 3 minutes for R. sanguineus adults and I. ricinus nymphs, after the 1-min pre-exposure period. To assess knockdown effect, recording was extended to 9 min (starting at the 1-min pre-exposure period and lasting an additional 8 minutes).
Deterrence activity was calculated as follows: Percent deterrence=1−(movements on treated area/movements on untreated area)×100.
A difference of 50% between total movements recorded in the treated area versus movements recorded in the untreated area was considered significant.
The tick knockdown effect was calculated similarly: Percent knockdown=1−(movements at the end of the imaging period/movements at the beginning of the imaging period)×100.
A difference of 50% between total movements recorded during the 1 min pre-exposure and total movements measured at 9 min of recording was considered significant.

[2] = system: adult Aedes aegypti mosquitoes; assay: Mosquito repellency assay (landings and time on warm treated surface); type: in vivo; settings: for Mean probing time [%, compared to control]: 100% = same time as on vehicle-treated surface; for Repellency, % reduction in landings vs vehicle control: repellency as percentage reduction of control, 100% = no landings
Description: The compound of the invention is mixed with ethanol to make a composition that can be applied to a surface and allowed to dry. After the surface is treated with the compounds of the invention and dried, it is heated to human body temperature, and the number of landings and the total time spent by the mosquitoes on the warm surface by adult Aedes aegypti mosquitoes is recorded automatically by machine vision to measure repellency of each compound.
Repellency (based on the number of individual landings on the warm surface) is expressed as a percentage reduction of the control, where the average number of mosquitoes landing on a warm surface treated only with the vehicle solvent is counted. 100% means no mosquitoes landed on the warm surface.
For mosquitoes that still landed on the warm surface, the time spent on the warm surface is also recorded and expressed as a percentage of the control, corresponding to the average time that mosquitoes spent on the same warm surface when treated only with the vehicle solvent. 100% mean that the mosquitoes spent the same time on the treated warm surface as on a warm surface treated only with the vehicle solvent.
Each compound/dose is tested in triplicate using a surface of 18.9 cm2 and 100 microliters of solution without the compound (the placebo) or with the compound dilution spread on the surface, and allowed to dry before the test. The average and standard error on triplicates is calculated. The control (using only vehicle solvent) is run with ethanol. The same population of mosquitoes is exposed first to the warm surface treated with the vehicle solvent, then to the surface treated with the compound. The concentration of the solution comprising the test compound was adjusted to ensure the treatment dosage of the compound is according to the final concentration per surface units area in the table.

[3] = dose 380 μmol/m^2, listed as S enantiomer HCl salt, dihydrochloride

Compound: C1=CC[C@@H](c2cccnc2)NC1 [(S)-anatabine dihydrochloride]
- MEC (μmol/m^2) ([1]; Table 5, N = 3 subset of Table 4): 300 μmol/m^2
- % repellency ([1]; Table 5, N = 3 subset of Table 4, dose 30): 12%
- % repellency ([1]; Table 5, N = 3 subset of Table 4, dose 300): 78%
- Repellence Median (Q1-Q3) [%] ([1]; concentration 3 μmol/m^2): 38.4%
- Knockdown Median (Q1-Q3) [%] ([1]; concentration 3 μmol/m^2): 0%
- Repellence Median (Q1-Q3) [%] ([1]; concentration 10 μmol/m^2, dihydrochloride): 38.1%
- Repellence Median (Q1-Q3) [%] ([1]; concentration 10 μmol/m^2, listed as (S)-anatabine, dihydrochloride): 38%
- Knockdown Median (Q1-Q3) [%] ([1]; concentration 10 μmol/m^2): 4.2%
- Repellence Median (Q1-Q3) [%] ([1]; concentration 30 μmol/m^2, dihydrochloride): 54.4%
- Repellence Median (Q1-Q3) [%] ([1]; concentration 30 μmol/m^2, listed as (S)-anatabine, dihydrochloride): 54%
- Knockdown Median (Q1-Q3) [%] ([1]; concentration 30 μmol/m^2): 14.7%
- Repellence Median (Q1-Q3) [%] ([1]; concentration 100 μmol/m^2, dihydrochloride): 86.2%
- Repellence Median (Q1-Q3) [%] ([1]; concentration 100 μmol/m^2, listed as (S)-anatabine, dihydrochloride): 86%
- Knockdown Median (Q1-Q3) [%] ([1]; concentration 100 μmol/m^2): 23.8%
- Repellence Median (Q1-Q3) [%] ([1]; concentration 300 μmol/m^2): 79.8%
- Knockdown Median (Q1-Q3) [%] ([1]; concentration 300 μmol/m^2): 14.2%
- Knockdown Minimum effective concentration ([1]; smallest concentration with median activity above 50% significance limit): >300 μmol/m^2
- Repellence Minimum effective concentration ([1]; smallest concentration with median activity above 50% significance limit, dihydrochloride): 30 μmol/m^2
- Mean probing time [%, compared to control] [2, 3]: 71.5%
- Repellency, % reduction in landings vs vehicle control [2, 3]: 25.4%
- Mean probing time [%, compared to control] ([2]; dose 760 μmol/m^2): 62.7%
- Repellency, % reduction in landings vs vehicle control ([2]; dose 760 μmol/m^2): 28.2%
